Measurements reported in patent publication US10941157B2, “Pesticidal compositions and uses thereof” (Gilead Apollo, LLC, priority 2015, dated 2021).
Values after ≈ are worked out from the molar mass of the structure shown. Where two headings read alike, the source gives them in different places.

How the values were obtained:
Format in all cases: cell-based
[1] = test system: Fusarium moniliforme (Fm); experiment: In vitro pathogen growth inhibition assay, Fm; conditions: Fusarium verticillioides
Method in brief: (§1)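 Value reported is the compound concentration reaching ≥90% growth inhibition, from OD readings at 24 and 48 h after blank subtraction, confirmed visually. Inoculum was spores diluted in 17% V8 medium, except Rs, using 1.5 mm mycelial plugs in ¼ PDB; actual compound concentration corrected via OD600.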

[2] = test system: Fusarium virguliforme (Fv); experiment: In vitro pathogen growth inhibition assay, Fv
Method in brief: (§2)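 Spores in 17% V8 liquid medium, or 1.5 mm Rs mycelial plugs in ¼ PDB, incubated with compound; final concentration checked by OD600 for precipitation. OD readings at 24 and 48 h, blank-subtracted, plus visual ratings; value is concentration giving ≥90% growth inhibition.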

[3] = test system: Collectotrichum graminicola (Cg); experiment: In vitro pathogen growth inhibition assay, Cg; conditions: 48 h
Method in brief: as §1

Septoria tritici (St) = experiment: In vitro pathogen growth inhibition assay, St; conditions: Zymoseptoria tritici, 48 h
Method in brief: as §1

Rhizoctonia solani (Rs) = experiment: In vitro pathogen growth inhibition assay, Rs (mycelial plugs); conditions: Rhizoctonia solani, 48 h
Method in brief: as §2

Diplodia maydis (Dm) = experiment: In vitro pathogen growth inhibition assay, Dm; conditions: Stenocarpella maydis, 48 h
Method in brief: as §2

[4] = test system: Phytophthora capsici (Pc); experiment: In vitro pathogen growth inhibition assay, Pc; conditions: 48 h
Method in brief: as §2

Botrtyis cinerea (Bc) = experiment: In vitro pathogen growth inhibition assay, Bc; conditions: 48 h
Method in brief: as §1

[5] = ≥90% growth inhibition, 48 hours, vs 2% DMSO control, read-out: Compound Concentration (ppm) sufficient for ≥90% inhibition of Fm
[6] = ≥90% growth inhibition, 48 hours, vs 2% DMSO control, read-out: Compound Concentration (ppm) sufficient for ≥90% inhibition of Fv
[7] = ≥90% growth inhibition, 48 hours, vs 2% DMSO control, read-out: Compound Concentration (ppm) sufficient for ≥90% inhibition of Cg
[8] = ≥90% growth inhibition, 48 hours, vs 2% DMSO control, read-out: Compound Concentration (ppm) sufficient for ≥90% inhibition of St
[9] = ≥90% growth inhibition, mycelial plugs, 48 hours, vs 2% DMSO control, read-out: Compound Concentration (ppm) sufficient for ≥90% inhibition of Rs
[10] = ≥90% growth inhibition, 48 hours, vs 2% DMSO control, read-out: Compound Concentration (ppm) sufficient for ≥90% inhibition of Dm
[11] = ≥90% growth inhibition, 48 hours, vs 2% DMSO control, read-out: Compound Concentration (ppm) sufficient for ≥90% inhibition of Pc
[12] = ≥90% growth inhibition, 48 hours, vs 2% DMSO control, read-out: Compound Concentration (ppm) sufficient for ≥90% inhibition of Bc
[13] = concentration sufficient to ≥90% inhibition of growth, 48 hours vs 2% DMSO control, read-out: Compound Concentration (ppm) for ≥90% inhibition, Fm
[14] = concentration sufficient to ≥90% inhibition of growth, 48 hours vs 2% DMSO control, read-out: Compound Concentration (ppm) for ≥90% inhibition, Fv
[15] = concentration sufficient to ≥90% inhibition of growth, 48 hours vs 2% DMSO control, read-out: Compound Concentration (ppm) for ≥90% inhibition, Cg
[16] = concentration sufficient to ≥90% inhibition of growth, 48 hours vs 2% DMSO control, read-out: Compound Concentration (ppm) for ≥90% inhibition, St
[17] = concentration sufficient to ≥90% inhibition of growth, 48 hours vs 2% DMSO control, read-out: Compound Concentration (ppm) for ≥90% inhibition, Rs
[18] = concentration sufficient to ≥90% inhibition of growth, 48 hours vs 2% DMSO control, read-out: Compound Concentration (ppm) for ≥90% inhibition, Dm
[19] = concentration sufficient to ≥90% inhibition of growth, 48 hours vs 2% DMSO control, read-out: Compound Concentration (ppm) for ≥90% inhibition, Pc
[20] = concentration sufficient to ≥90% inhibition of growth, 48 hours vs 2% DMSO control, read-out: Compound Concentration (ppm) for ≥90% inhibition, Bc

SMILES | IC90 [1, 5] | IC90 [2, 6] | IC90 [3, 7] | IC90 (Septoria tritici (St); [8]) | IC90 (Rhizoctonia solani (Rs); [9]) | IC90 (Diplodia maydis (Dm); [10]) | IC90 [4, 11] | IC90 (Botrtyis cinerea (Bc); [12]) | IC90 [1, 13] | IC90 [2, 14] | IC90 [3, 15] | IC90 (Septoria tritici (St); [16]) | IC90 (Rhizoctonia solani (Rs); [17]) | IC90 (Diplodia maydis (Dm); [18]) | IC90 [4, 19] | IC90 (Botrtyis cinerea (Bc); [20]) | also measured
COc1ccc(F)cc1[C@H](Cn1c(=O)n(C(C)(C)C(N)=O)c(=O)c2c(C)c(-n3nccn3)sc21)OCC(C)C [Compound I-165] | ≥ 0.08 µg/mL | 2 µg/mL (≈ 3.58 µM) | 2 µg/mL (≈ 3.58 µM) | > 50 µg/mL | 2 µg/mL (≈ 3.58 µM) | 2 µg/mL (≈ 3.58 µM) | > 50 µg/mL | 2 µg/mL (≈ 3.58 µM) | – | – | – | – | – | – | – | – | –
CC(=O)Oc1ccccc1[C@H](Cn1c(=O)n(C(C)(C)C(=O)NC(C)C)c(=O)c2c(C)c(-n3nccn3)sc21)OCCC#N [Compound I-304] | 0.08 µg/mL (≈ 0.132 µM) | 0.4 µg/mL (≈ 0.658 µM) | 2 µg/mL (≈ 3.29 µM) | > 50 µg/mL | 2 µg/mL (≈ 3.29 µM) | ≥ 10 µg/mL | > 50 µg/mL | 2 µg/mL (≈ 3.29 µM) | – | – | – | – | – | – | – | – | –
CCNC(=O)C(C)(C)n1c(=O)c2c(C)c(-n3nccn3)sc2n(C[C@@H](OC(C)=O)c2cc(F)ccc2OC)c1=O [Compound I-318] | – | – | – | – | – | – | – | – | 10 µg/mL (≈ 17.5 µM) | > 50 µg/mL | > 50 µg/mL | > 50 µg/mL | > 50 µg/mL | > 50 µg/mL | > 50 µg/mL | 50 µg/mL (≈ 87.3 µM) | –
CNC(=O)C(C)(C)n1c(=O)c2c(C)c(-n3nccn3)sc2n(C[C@H](OCCC#N)c2cc(F)ccc2OC)c1=O [Compound I-207] | 0.08 µg/mL (≈ 0.14 µM) | 2 µg/mL (≈ 3.51 µM) | 10 µg/mL (≈ 17.6 µM) | > 50 µg/mL | 0.08 µg/mL (≈ 0.14 µM) | ≥ 2 µg/mL | > 50 µg/mL | 2 µg/mL (≈ 3.51 µM) | – | – | – | – | – | – | – | – | –
COc1ccc(F)cc1[C@H](Cn1c(=O)n(C(C)(C)C(=O)N(C)C)c(=O)c2c(C)c(-n3nccn3)sc21)OC(C)C [Compound I-131] | – | – | – | – | – | – | – | – | – | – | – | – | – | – | – | – | IC90 ([1]; ≥90% inhibition, 48 hours vs 2% DMSO control, read-out: Compound Concentration (ppm) sufficient for ≥90% inhibition of growth, Fm): 0.4 µg/mL (≈ 0.698 µM); IC90 ([2]; ≥90% inhibition, 48 hours vs 2% DMSO control, read-out: Compound Concentration (ppm) sufficient for ≥90% inhibition of growth, Fv): 0.4 µg/mL (≈ 0.698 µM); IC90 ([3]; ≥90% inhibition, 48 hours vs 2% DMSO control, read-out: Compound Concentration (ppm) sufficient for ≥90% inhibition of growth, Cg): 10 µg/mL (≈ 17.5 µM); IC90 (Septoria tritici (St); ≥90% inhibition, 48 hours vs 2% DMSO control, read-out: Compound Concentration (ppm) sufficient for ≥90% inhibition of growth, St): > 50 µg/mL; IC90 (Rhizoctonia solani (Rs); ≥90% inhibition, mycelial plugs, 48 hours vs 2% DMSO control, read-out: Compound Concentration (ppm) sufficient for ≥90% inhibition of growth, Rs): ≥ 0.4 µg/mL; IC90 (Diplodia maydis (Dm); ≥90% inhibition, 48 hours vs 2% DMSO control, read-out: Compound Concentration (ppm) sufficient for ≥90% inhibition of growth, Dm): 2 µg/mL (≈ 3.49 µM); IC90 ([4]; ≥90% inhibition, 48 hours vs 2% DMSO control, read-out: Compound Concentration (ppm) sufficient for ≥90% inhibition of growth, Pc): > 50 µg/mL; IC90 (Botrtyis cinerea (Bc); ≥90% inhibition, 48 hours vs 2% DMSO control, read-out: Compound Concentration (ppm) sufficient for ≥90% inhibition of growth, Bc): 0.4 µg/mL (≈ 0.698 µM)
Cc1c(-n2cccn2)sc2c1c(=O)n(C(C)(C)C(=O)NC(C)C)c(=O)n2CCc1cc(F)ccc1OCCC#N [Compound I-336] | – | – | – | – | – | – | – | – | 10 µg/mL (≈ 17.6 µM) | 10 µg/mL (≈ 17.6 µM) | > 50 µg/mL | > 50 µg/mL | > 50 µg/mL | > 50 µg/mL | > 50 µg/mL | 50 µg/mL (≈ 88.2 µM) | –
COc1ccc(F)cc1[C@H](Cn1c(=O)n([C@@H](C)C(=O)N2CCCC2)c(=O)c2c(C)c(-n3nccn3)sc21)OCCC#N [Compound I-201] | 0.4 µg/mL (≈ 0.672 µM) | ≥ 0.4 µg/mL | 10 µg/mL (≈ 16.8 µM) | > 50 µg/mL | 0.08 µg/mL (≈ 0.134 µM) | ≥ 2 µg/mL | > 50 µg/mL | 2 µg/mL (≈ 3.36 µM) | – | – | – | – | – | – | – | – | –
COc1ccc(F)cc1[C@@H](Cn1c(=O)n(C(C)(C)C(=O)NC(C)C)c(=O)c2c(C)c(-n3nccn3)sc21)OCCCO [Compound I-320] | – | – | – | – | – | – | – | – | 50 µg/mL (≈ 83 µM) | 50 µg/mL (≈ 83 µM) | > 50 µg/mL | > 50 µg/mL | > 50 µg/mL | > 50 µg/mL | > 50 µg/mL | 50 µg/mL (≈ 83 µM) | –
COc1ccc(F)cc1[C@H](Cn1c(=O)n([C@@H](C)C(=O)NC2CCC2)c(=O)c2c(C)c(-n3cccn3)sc21)OCCC#N [Compound I-312] | – | – | – | – | – | – | – | – | 10 µg/mL (≈ 16.8 µM) | > 50 µg/mL | > 50 µg/mL | > 50 µg/mL | 2 µg/mL (≈ 3.36 µM) | > 50 µg/mL | > 50 µg/mL | > 50 µg/mL | –
CCOC(=O)c1sc2c(c1C)c(=O)n(C(C)(C)C(N)=O)c(=O)n2C[C@H](OC1CCOCC1)c1ccccc1OC [Compound I-174] | – | – | – | – | – | – | – | – | 10 µg/mL (≈ 17.4 µM) | 10 µg/mL (≈ 17.4 µM) | 50 µg/mL (≈ 87.2 µM) | > 50 µg/mL | 50 µg/mL (≈ 87.2 µM) | 10 µg/mL (≈ 17.4 µM) | > 50 µg/mL | 10 µg/mL (≈ 17.4 µM) | –
